These results are taken from patent USRE32311E.

SMILES strings stand for the structures. Converted amounts (≈) assume the structure as drawn.

The MIC is the least concentration at which growth counts as inhibited. Read a high MIC as a less susceptible organism.

The subject of data set [1] is Streptococcus Group D 9960. Nature of the data set: agar-dilution MIC. The data set is classed as cell-based.
The test system of data set [2] is Streptococcus pyogenes C203. Nature of the data set: agar-dilution MIC. The class given is cell-based.
Experimental: (§1) In Table VII activity is measured by the minimal inhibitory concentration (MIC), i.e. the lowest concentration of compound at which growth of the microorganism is inhibited by the test compound.
Data set [3] concerns Staphylococcus aureus X1.1. Nature of the data set: agar-dilution MIC. The data set is classed as cell-based.
Another data set deals with Streptococcus pyogenes. Nature of the data set: experimental bacterial infection in mice, ED50. The class given is in vivo. Conditions: two doses.
The subject of the next data set is Staphylococcus aureus. As to the kind of experiment: experimental bacterial infection in mice, ED50. The class given is in vivo. The settings on record: two doses.
The test system of data set [4] is Streptococcus Group D X66. Nature of the data set: agar-dilution MIC. The data set is classed as cell-based.
Experimental: as §1
For data set [5], the system named is Staphylococcus epidermidis EP11. As to the kind of experiment: agar-dilution MIC. The data set is classed as cell-based.
Experimental: as §1
Data set [6] relates to Staphylococcus aureus V41. Nature of the data set: agar-dilution MIC. The data set is classed as cell-based. The settings on record: Staphylococcus aureus V41, penicillin-resistant strain.
Experimental: as §1
Data set [7] deals with Streptococcus pneumoniae Park I. The class given is cell-based. The settings on record: agar dilution. (In general: In agar dilution, organisms are placed on agar that contains the substance at set levels.)
Experimental: as §1
The subject of data set [8] is Staphylococcus epidermidis EP12. As to the kind of experiment: agar-dilution MIC. The class given is cell-based.
Experimental: as §1
Data set [9] relates to Staphylococcus aureus X400. Nature of the data set: agar-dilution MIC. The data set is classed as cell-based. The settings on record: Staphylococcus aureus X400, methicillin-resistant strain.
Experimental: as §1
The next data set can be described thus: toxicity, LD50 in mice. The class given is in vivo. The settings on record: administered intravenously.

Consider `CCCCCCCCCCC(=O)N[C@@H](Cc1ccccc1)C(=O)NCCC[C@@H]1NC(=O)CNC(=O)[C@@H](NC(=O)[C@H](CC(=O)O)NC(=O)[C@@H](CC(N)=O)NC(=O)[C@@H](N)Cc2c[nH]c3ccccc23)[C@@H](C)OC(=O)[C@H](CC(=O)c2ccccc2N)NC(=O)[C@H]([C@H](C)CC(=O)O)NC(=O)[C@@H](CO)NC(=O)CNC(=O)[C@H](CC(=O)O)NC(=O)[C@@H](C)NC(=O)[C@H](CC(=O)O)NC1=O` [Compound 26], for which the MIC in data set [1] was 32 µg/mL (≈ 18 µM); in data set [2] it was 1 µg/mL (≈ 0.561 µM); in data set [3], 8 µg/mL (≈ 4.49 µM). The “ED50 Streptococcus pyogenes Oral” value with Streptococcus pyogenes was greater than 200 mg/kg × 2. Also, the “ED50 Streptococcus pyogenes Subcutaneous” value in the data set with Streptococcus pyogenes is listed as greater than 18 mg/kg × 2. In the data set on Staphylococcus aureus, the “ED50 Staphylococcus aureus Subcutaneous” value amounted to 9.2 mg/kg × 2.
With `CCCCCCCCCC(=O)N[C@@H](Cc1c[nH]c2ccccc12)C(=O)N[C@@H](CC(N)=O)C(=O)N[C@@H](CC(=O)O)C(=O)N[C@@H]1C(=O)NCC(=O)N[C@@H](CCCN)C(=O)N[C@@H](CC(=O)O)C(=O)N[C@H](C)C(=O)N[C@@H](CC(=O)O)C(=O)NCC(=O)N[C@H](CO)C(=O)N[C@@H]([C@H](C)CC(=O)O)C(=O)N[C@@H](CC(=O)c2ccccc2N)C(=O)O[C@@H]1C` [Compound 6], the minimal inhibitory concentration (MIC) in [4] is 16 µg/mL (≈ 9.87 µM); in [5], 2 µg/mL (≈ 1.23 µM); in data set [1] it was 2 µg/mL (≈ 1.23 µM); in data set [6], 2 µg/mL (≈ 1.23 µM); in data set [7] it was 2 µg/mL (≈ 1.23 µM); in [2], 0.5 µg/mL (≈ 0.309 µM). Besides, the figures for the minimal inhibitory concentration (MIC) in data set [3], in data set [8] and in data set [9] were 1 µg/mL (≈ 0.617 µM), 2 µg/mL (≈ 1.23 µM) and 4 µg/mL (≈ 2.47 µM), respectively.
As to `CCCCCCCCCCCCCCCC(=O)N[C@@H](Cc1c[nH]c2ccccc12)C(=O)N[C@@H](CC(N)=O)C(=O)N[C@@H](CC(=O)O)C(=O)N[C@@H]1C(=O)NCC(=O)N[C@@H](CCCN)C(=O)N[C@@H](CC(=O)O)C(=O)N[C@H](C)C(=O)N[C@@H](CC(=O)O)C(=O)NCC(=O)N[C@H](CO)C(=O)N[C@@H]([C@H](C)CC(=O)O)C(=O)N[C@@H](CC(=O)c2ccccc2N)C(=O)O[C@@H]1C` [Compound 10], the MIC stood at 2.1 µg/mL (≈ 1.23 µM) in [5], 2.1 µg/mL (≈ 1.23 µM) in data set [1], 0.25 µg/mL (≈ 0.147 µM) in data set [7] and 0.06 µg/mL (≈ 0.0352 µM) in [2]. Moreover, the “LD50 in Mice” value in the data set “toxicity, LD50 in mice” is 450 mg/kg. In addition, the “ED50 Streptococcus pyogenes Subcutaneous” value in the data set with Streptococcus pyogenes amounted to 0.69 mg/kg × 2.
For `CCCCCCCCCC(=O)N[C@@H](Cc1ccccc1)C(=O)N[C@@H](Cc1c[nH]c2ccccc12)C(=O)N[C@H](CC(N)=O)C(=O)N[C@@H](CC(=O)O)C(=O)N[C@@H]1C(=O)NCC(=O)N[C@@H](CCCN)C(=O)N[C@@H](CC(=O)O)C(=O)N[C@H](C)C(=O)N[C@@H](CC(=O)O)C(=O)NCC(=O)N[C@H](CO)C(=O)N[C@@H]([C@H](C)CC(=O)O)C(=O)N[C@@H](CC(=O)c2ccccc2N)C(=O)O[C@@H]1C` [Compound 19, NTrp-[N-(n-Decanoyl)-L-phenylalanyl]-A-21978C Nucleus], the MIC in data set [4] was 8 µg/mL (≈ 4.53 µM); in [5], 1 µg/mL (≈ 0.566 µM); in data set [1] it was 2 µg/mL (≈ 1.13 µM); in data set [6], 0.5 µg/mL (≈ 0.283 µM); in data set [7], 0.75 µg/mL (≈ 0.424 µM); in [2], 0.25 µg/mL (≈ 0.141 µM). The minimal inhibitory concentration (MIC) in data set [3] turned out to be 0.5 µg/mL (≈ 0.283 µM); in [8], 0.5 µg/mL (≈ 0.283 µM); in data set [9], 1 µg/mL (≈ 0.566 µM). Further, in the data set “toxicity, LD50 in mice”, the “LD50 in Mice” value came out at 600 mg/kg. The “ED50 Streptococcus pyogenes Oral” value in the data set on Streptococcus pyogenes is recorded as greater than 200 mg/kg × 2. Moreover, the “ED50 Streptococcus pyogenes Subcutaneous” value in the data set with Streptococcus pyogenes is 0.39 mg/kg × 2.
For `CCCCCCCCC(=O)N[C@@H](Cc1ccccc1)C(=O)N[C@@H](Cc1c[nH]c2ccccc12)C(=O)N[C@H](CC(N)=O)C(=O)N[C@@H](CC(=O)O)C(=O)N[C@@H]1C(=O)NCC(=O)N[C@@H](CCCN)C(=O)N[C@@H](CC(=O)O)C(=O)N[C@H](C)C(=O)N[C@@H](CC(=O)O)C(=O)NCC(=O)N[C@H](CO)C(=O)N[C@@H]([C@H](C)CC(=O)O)C(=O)N[C@@H](CC(=O)c2ccccc2N)C(=O)O[C@@H]1C` [Compound 18], the MIC is 32 µg/mL (≈ 18.2 µM) in data set [4]; 4 µg/mL (≈ 2.28 µM) in data set [5]; 8 µg/mL (≈ 4.56 µM) in [1]; 2 µg/mL (≈ 1.14 µM) in data set [6]; 0.5 µg/mL (≈ 0.285 µM) in data set [2]; 2 µg/mL (≈ 1.14 µM) in [3]. Moreover, the figures for the MIC in data set [8] and in data set [9] were 2 µg/mL (≈ 1.14 µM) and 4 µg/mL (≈ 2.28 µM), respectively. In the data set “toxicity, LD50 in mice”, the “LD50 in Mice” value is recorded as greater than 600 mg/kg. The “ED50 Streptococcus pyogenes Oral” value in the data set with Streptococcus pyogenes is on record as 184 mg/kg × 2. In the data set on Streptococcus pyogenes, the “ED50 Streptococcus pyogenes Subcutaneous” value is 0.59 mg/kg × 2. For the same compound, the “ED50 Staphylococcus aureus Subcutaneous” value in the data set with Staphylococcus aureus is given as 1.38 mg/kg × 2.
For `CCCCCCCCCCCC(=O)NCCCCCCCCCCC(=O)N[C@@H](Cc1c[nH]c2ccccc12)C(=O)N[C@H](CC(N)=O)C(=O)N[C@@H](CC(=O)O)C(=O)N[C@@H]1C(=O)NCC(=O)N[C@@H](CCCN)C(=O)N[C@@H](CC(=O)O)C(=O)N[C@H](C)C(=O)N[C@@H](CC(=O)O)C(=O)NCC(=O)N[C@H](CO)C(=O)N[C@@H]([C@H](C)CC(=O)O)C(=O)N[C@@H](CC(=O)c2ccccc2N)C(=O)O[C@@H]1C` [Compound 3], the MIC in data set [4] was 8 µg/mL (≈ 4.37 µM); in data set [5] it was 8 µg/mL (≈ 4.37 µM); in data set [1] it was 8 µg/mL (≈ 4.37 µM); in [6], 2 µg/mL (≈ 1.09 µM); in data set [7] it was 0.5 µg/mL (≈ 0.273 µM); in data set [2] it was 2 µg/mL (≈ 1.09 µM). The MIC came out at 2 µg/mL (≈ 1.09 µM) in data set [3], 8 µg/mL (≈ 4.37 µM) in [8] and 8 µg/mL (≈ 4.37 µM) in data set [9]. In “toxicity, LD50 in mice”, the “LD50 in Mice” value is 600 mg/kg. For the same compound, the “ED50 Streptococcus pyogenes Oral” value in the data set on Streptococcus pyogenes is reported as greater than 200 mg/kg × 2. The “ED50 Streptococcus pyogenes Subcutaneous” value with Streptococcus pyogenes was 6.2 mg/kg × 2. Also, the “ED50 Staphylococcus aureus Subcutaneous” value in the data set on Staphylococcus aureus is recorded as greater than 18 mg/kg × 2.
`CCC(C)CCCCCCC(=O)N[C@@H](Cc1c[nH]c2ccccc12)C(=O)N[C@@H](CC(N)=O)C(=O)N[C@@H](CC(=O)O)C(=O)N[C@@H]1C(=O)NCC(=O)N[C@@H](CCCNC(=O)CCC(=O)O)C(=O)N[C@@H](CC(=O)O)C(=O)N[C@H](C)C(=O)N[C@@H](CC(=O)O)C(=O)NCC(=O)N[C@H](CO)C(=O)N[C@@H]([C@H](C)CC(=O)O)C(=O)N[C@@H](CC(=O)c2ccccc2N)C(=O)O[C@@H]1C` (some centres unmarked) [Compound 15]: the MIC turned out to be 4 µg/mL (≈ 2.31 µM) in [4]; 4 µg/mL (≈ 2.31 µM) in [5]; 4 µg/mL (≈ 2.31 µM) in [1]; 2 µg/mL (≈ 1.15 µM) in data set [6]; 0.25 µg/mL (≈ 0.144 µM) in data set [7]; 1 µg/mL (≈ 0.576 µM) in data set [2]. Besides, the MIC was 1 µg/mL (≈ 0.576 µM) in data set [3], 4 µg/mL (≈ 2.31 µM) in [8] and 8 µg/mL (≈ 4.61 µM) in data set [9]. Besides, in “toxicity, LD50 in mice”, the “LD50 in Mice” value was found to be 250 mg/kg. In the data set on Streptococcus pyogenes, the “ED50 Streptococcus pyogenes Subcutaneous” value is given as 1.02 mg/kg × 2. In addition, the “ED50 Staphylococcus aureus Subcutaneous” value in the data set on Staphylococcus aureus is greater than 18 mg/kg × 2.
Turning to `CCCCCCCCCCC(=O)N[C@@H](Cc1ccccc1)C(=O)N[C@@H](Cc1c[nH]c2ccccc12)C(=O)N[C@H](CC(N)=O)C(=O)N[C@@H](CC(=O)O)C(=O)N[C@@H]1C(=O)NCC(=O)N[C@@H](CCCN)C(=O)N[C@@H](CC(=O)O)C(=O)N[C@H](C)C(=O)N[C@@H](CC(=O)O)C(=O)NCC(=O)N[C@H](CO)C(=O)N[C@@H]([C@H](C)CC(=O)O)C(=O)N[C@@H](CC(=O)c2ccccc2N)C(=O)O[C@@H]1C` [Compound 20], the MIC in [4] was 4 µg/mL (≈ 2.24 µM); in data set [5], 2 µg/mL (≈ 1.12 µM); in data set [1], 2 µg/mL (≈ 1.12 µM); in data set [6], 0.5 µg/mL (≈ 0.281 µM); in [3], 0.5 µg/mL (≈ 0.281 µM); in data set [8], 2 µg/mL (≈ 1.12 µM). Moreover, the MIC in [9] was 2 µg/mL (≈ 1.12 µM). The “LD50 in Mice” value in “toxicity, LD50 in mice” came to 400 mg/kg. Besides, the “ED50 Streptococcus pyogenes Oral” value with Streptococcus pyogenes is greater than 200 mg/kg × 2. In addition, in the data set with Streptococcus pyogenes, the “ED50 Streptococcus pyogenes Subcutaneous” value came to 0.35 mg/kg × 2. In addition, the “ED50 Staphylococcus aureus Subcutaneous” value with Staphylococcus aureus was 1.25 mg/kg × 2.
Turning to `CCCCCCCCCCCC(=O)NCCCCC(=O)N[C@@H](Cc1c[nH]c2ccccc12)C(=O)N[C@H](CC(N)=O)C(=O)N[C@@H](CC(=O)O)C(=O)N[C@@H]1C(=O)NCC(=O)N[C@@H](CCCN)C(=O)N[C@@H](CC(=O)O)C(=O)N[C@H](C)C(=O)N[C@@H](CC(=O)O)C(=O)NCC(=O)N[C@H](CO)C(=O)N[C@@H]([C@H](C)CC(=O)O)C(=O)N[C@@H](CC(=O)c2ccccc2N)C(=O)O[C@@H]1C` [Compound 2], the MIC in data set [4] is 32 µg/mL (≈ 18.3 µM); in [5], 4 µg/mL (≈ 2.29 µM); in [1] it was 8 µg/mL (≈ 4.58 µM); in data set [6], 4 µg/mL (≈ 2.29 µM); in data set [7], 4 µg/mL (≈ 2.29 µM); in [2], 1 µg/mL (≈ 0.572 µM). For the same compound, the MIC in data set [3] came to 4 µg/mL (≈ 2.29 µM); in data set [8] it was 2 µg/mL (≈ 1.14 µM); in data set [9], 4 µg/mL (≈ 2.29 µM). Also, the “LD50 in Mice” value in the data set “toxicity, LD50 in mice” was greater than 600 mg/kg. For the same compound, the “ED50 Streptococcus pyogenes Oral” value in the data set on Streptococcus pyogenes worked out at 117 mg/kg × 2.
